# Laboratory results taken from patent US6218398A, “Nocathiacin antibiotics” (Bristol-Myers Squibb Company, priority 1999, dated 2001).
# Read-outs that look alike come from different tables or passages of the source.
# Experiments:
# [1] = test system: Enterococcus faecium strain A28152; test: antibiotic susceptibility of the MREF strain; assay type: cell-based; conditions: strain description; source not stated
# Gram-positive bacteria [2] = conditions: reported for known thiazolyl peptides; cited from earlier work
# [3] = test system: Haemophilus influenzae/β-lactamase negative A20191; test: MIC by conventional serial broth dilution assay; assay type: cell-based; conditions: β-lactamase negative, read-out: MIC
# [4] = test system: Staphylococcus aureus/QC/ATCC#29213 A24407; test: MIC by conventional serial broth dilution assay; assay type: cell-based
# [5] = test system: Staphylococcus epidermidis A24548; test: MIC by conventional serial broth dilution assay; assay type: cell-based
# [6] = test system: Staphylococcus aureus/homo methicillin resistant A27223; test: MIC by conventional serial broth dilution assay; assay type: cell-based
# [7] = test system: Streptococcus pneumoniae A9585; test: MIC by conventional serial broth dilution assay; assay type: cell-based
# [8] = test system: Haemophilus influenzae/β-lactamase positive A21515; test: MIC by conventional serial broth dilution assay; assay type: cell-based; conditions: β-lactamase positive, read-out: MIC
# Gram-positive bacteria [9] = test: in vitro activity against Gram-positive bacteria; assay type: cell-based; conditions: e.g. multiple drug resistant Enterococcus faecium
# [10] = test system: Streptococcus pneumoniae/penicillin resistant A28272; test: MIC by conventional serial broth dilution assay; assay type: cell-based
# [11] = test system: Streptococcus pneumoniae/penicillin intermediate A27881; test: MIC by conventional serial broth dilution assay; assay type: cell-based
# [12] = test system: Enterococcus faecium A24885; test: MIC by conventional serial broth dilution assay; assay type: cell-based
# [13] = test system: Enterococcus avium A27456; test: MIC by conventional serial broth dilution assay; assay type: cell-based
# [14] = test system: Moraxella catarrhalis/β-lactamase positive A22344; test: MIC by conventional serial broth dilution assay; assay type: cell-based
# [15] = test system: Enterococcus faecalis A20688; test: MIC by conventional serial broth dilution assay; assay type: cell-based
# [16] = test system: Moraxella catarrhalis/β-lactamase positive A25409; test: MIC by conventional serial broth dilution assay; assay type: cell-based
# [17] = test system: Staphylococcus haemolyticus A27298; test: MIC by conventional serial broth dilution assay; assay type: cell-based
# [18] = test system: Staphylococcus aureus/β-lactamase positive A15090; test: MIC by conventional serial broth dilution assay; assay type: cell-based
# [19] = test system: Haemophilus influenzae/β-lactamase negative A20183; test: MIC by conventional serial broth dilution assay; assay type: cell-based; conditions: β-lactamase negative, read-out: MIC
# [20] = test system: Enterococcus faecalis A27519; test: MIC by conventional serial broth dilution assay; assay type: cell-based
# Bacillus subtilis A9506A = test: MIC by conventional serial broth dilution assay; assay type: cell-based
# [21] = test system: Escherichia coli/AcrA::Kan A28901; test: MIC by conventional serial broth dilution assay; assay type: cell-based
# Escherichia coli A15119 = test: MIC by conventional serial broth dilution assay; assay type: cell-based
# Salmonella/RE A27208 = test: MIC by conventional serial broth dilution assay; assay type: cell-based
# [22] = test system: Salmonella enteritidis A9531; test: MIC by conventional serial broth dilution assay; assay type: cell-based; conditions: Salmonella enterica
# [23] = test system: Streptococcus pyogenes A9604; test: MIC by conventional serial broth dilution assay; assay type: cell-based
# Escherichia coli A22292 = test: MIC by conventional serial broth dilution assay; assay type: cell-based
# [24] = test system: Enterococcus faecium/thiostrepton resistant (10 ug/ml) SC15829; test: MIC by conventional serial broth dilution assay; assay type: cell-based
# Micrococcus luteus A9852 = test: MIC by conventional serial broth dilution assay; assay type: cell-based
# Salmonella/WT A27207 = test: MIC by conventional serial broth dilution assay; assay type: cell-based
# [25] = test system: Staphylococcus aureus/hetero methicillin resistant A27218; test: MIC by conventional serial broth dilution assay; assay type: cell-based
# [26] = test system: Staphylococcus aureus A9537; test: MIC by conventional serial broth dilution assay; assay type: cell-based
# [27] = β-lactamase positive, read-out: MIC
molecule,measurement,setting,value
CC[C@H]1OC(=O)[C@H](C)[C@@H](O[C@H]2C[C@@](C)(OC)[C@@H](O)[C@H](C)O2)[C@H](C)[C@@H](O[C@@H]2O[C@H](C)C[C@H](N(C)C)[C@H]2O)[C@](C)(O)C[C@@H](C)C(=O)[C@H](C)[C@@H](O)[C@]1(C)O [erythromycin],resistance/sensitivity of E. faecium strain A28152 to the antibiotic,[1],resistant
C=C(NC(=O)C(=C)NC(=O)c1csc(C2=N[C@@H]3c4csc(n4)[C@H]4NC(=O)c5csc(n5)[C@H]([C@](C)(O)[C@@H](C)O)NC(=O)[C@H]5CSC(=N5)/C(=C/C)NC(=O)[C@H]([C@@H](C)O)NC(=O)c5csc(n5)[C@]3(CC2)NC(=O)[C@H](C)NC(=O)C(=C)NC(=O)[C@H](C)NC(=O)[C@H]([C@@H](C)CC)N[C@@H]2C=Cc3c([C@H](C)O)cc(nc3[C@H]2O)C(=O)O[C@@H]4C)n1)C(N)=O [thiostrepton],antimicrobial activity against Gram-positive bacteria in vitro,Gram-positive bacteria [2],potent antimicrobial activity
gentamicin,resistance/sensitivity of E. faecium strain A28152 to the antibiotic,[1],resistant
O=C(N[C@H](CO)[C@H](O)c1ccc([N+](=O)[O-])cc1)C(Cl)Cl [chloramphenicol],resistance/sensitivity of E. faecium strain A28152 to the antibiotic,[1],sensitive
CO[C@H]1/C=C/O[C@@]2(C)Oc3c(C)c(O)c4c(O)c(c(/C=N/N5CCN(C)CC5)c(O)c4c3C2=O)NC(=O)/C(C)=C\C=C\[C@H](C)[C@H](O)[C@@H](C)[C@@H](O)[C@@H](C)[C@H](OC(C)=O)[C@@H]1C [rifampin],resistance/sensitivity of E. faecium strain A28152 to the antibiotic,[1],resistant
CN[C@H](CC(C)C)C(=O)N[C@H]1C(=O)N[C@@H](CC(N)=O)C(=O)N[C@H]2C(=O)N[C@H]3C(=O)N[C@H](C(=O)N[C@H](C(=O)O)c4cc(O)cc(O)c4-c4cc3ccc4O)[C@H](O)c3ccc(c(Cl)c3)Oc3cc2cc(c3O[C@@H]2O[C@H](CO)[C@@H](O)[C@H](O)[C@H]2O[C@H]2C[C@](C)(N)[C@H](O)[C@H](C)O2)Oc2ccc(cc2Cl)[C@H]1O [vancomycin],resistance/sensitivity of E. faecium strain A28152 to the antibiotic,[1],resistant
CCC[C@@H]1C[C@@H](C(=O)N[C@@H]([C@H]2O[C@H](SC)[C@H](O)[C@@H](O)[C@H]2O)[C@H](C)Cl)N(C)C1 [clindamycin],resistance/sensitivity of E. faecium strain A28152 to the antibiotic,[1],resistant
C=C(NC(=O)c1csc(-c2nc3c(cc2O)-c2nc(cs2)C(=O)NC(C(C)O)C(=O)NC(=C(C)OC)c2nc(cs2)C(=O)NC2c4nc(cs4)C(=O)NC(COC(=O)c4c5c6c(cccc6n4O)COC(=O)C(O)C2OC5)c2nc-3cs2)n1)C(N)=O (centres unmarked) [Nocathiacin III],MIC,[3],> 64 µg/mL
same,MIC,"[4]; ATCC29213, QC/ATCC#29213, read-out: MIC",0.007 µg/mL
same,MIC,[5]; read-out: MIC,0.007 µg/mL
same,MIC,"[6]; homo methicillin resistant, read-out: MIC",0.007 µg/mL
same,MIC,[7]; read-out: MIC,≤ 0.002 µg/mL
same,MIC,[8],> 64 µg/mL
same,inhibitory activity against Gram-positive bacteria,Gram-positive bacteria [9],inhibitory activity at the nanomolar level
same,MIC,"[10]; penicillin resistant, read-out: MIC",≤ 0.002 µg/mL
same,MIC,"[11]; penicillin intermediate, read-out: MIC",≤ 0.002 µg/mL
same,MIC,[12]; read-out: MIC,0.03 µg/mL
same,MIC,[13]; read-out: MIC,0.03 µg/mL
same,MIC,[14]; [27],0.06 µg/mL
same,MIC,"[15]; A20688, + 50% calf serum, read-out: MIC",0.25 µg/mL
same,MIC,"[15]; A20688, read-out: MIC",0.03 µg/mL
same,MIC,[16]; [27],0.06 µg/mL
same,MIC,[17]; read-out: MIC,0.007 µg/mL
same,MIC,"[18]; + 50% calf serum, read-out: MIC",0.03 µg/mL
same,MIC,[18]; [27],0.007 µg/mL
same,MIC,[19],> 64 µg/mL
same,MIC,[20]; read-out: MIC,0.03 µg/mL
[H]/N=C(/N)N[C@H]1[C@H](O)[C@@H](O)[C@H](O[C@@H]2O[C@@H](C)[C@](O)(C=O)[C@H]2O[C@@H]2O[C@@H](CO)[C@H](O)[C@@H](O)[C@@H]2NC)[C@@H](N/C(N)=N\[H])[C@@H]1O [streptomycin],resistance/sensitivity of E. faecium strain A28152 to the antibiotic,[1],resistant
O=C(O)c1cn(C2CC2)c2cc(N3CCNCC3)c(F)cc2c1=O [ciprofloxacin],resistance/sensitivity of E. faecium strain A28152 to the antibiotic,[1],resistant
C=C(NC(=O)c1csc(-c2nc3c(cc2O)-c2nc(cs2)C(=O)NC(C(C)O)C(=O)NC(=C(C)OC)c2nc(cs2)C(=O)NC2c4nc(cs4)C(=O)NC(COC(=O)c4[nH]c5cccc6c5c4COC2C(OC2CC(C)(O)C(N(C)C)C(C)O2)C(=O)OC6)c2nc-3cs2)n1)C(N)=O (centres unmarked) [Nocathiacin II],MIC,Bacillus subtilis A9506A,0.125 µg/mL
same,MIC,[4]; ATCC29213,0.5 µg/mL
same,MIC,[21],> 128 µg/mL
same,MIC,[5],0.125 µg/mL
same,MIC,Escherichia coli A15119,> 128 µg/mL
same,MIC,Salmonella/RE A27208,> 128 µg/mL
same,MIC,[6]; + 50% calf serum,0.125 µg/mL
same,MIC,[6]; homo methicillin resistant,0.125 µg/mL
same,MIC,[7],0.015 µg/mL
same,inhibitory activity against Gram-positive bacteria,Gram-positive bacteria [9],inhibitory activity at the nanomolar level
same,MIC,[22],> 128 µg/mL
same,MIC,[10],0.015 µg/mL
same,MIC,[23],0.125 µg/mL
same,MIC,[11],0.015 µg/mL
same,MIC,[12],0.5 µg/mL
same,MIC,Escherichia coli A22292,> 128 µg/mL
same,MIC,[13],0.5 µg/mL
same,MIC,[14],0.125 µg/mL
same,MIC,[24],0.5 µg/mL
same,MIC,[15]; A20688,0.5 µg/mL
same,MIC,"[15]; A20688, + 50% calf serum",0.5 µg/mL
same,MIC,Micrococcus luteus A9852,0.125 µg/mL
same,MIC,[16],0.125 µg/mL
same,MIC,Salmonella/WT A27207,> 128 µg/mL
same,MIC,[25]; + 50% calf serum,0.5 µg/mL
same,MIC,[25]; hetero methicillin resistant,0.5 µg/mL
same,MIC,[26],0.06 µg/mL
same,MIC,[17],0.25 µg/mL
same,MIC,[18]; + 50% calf serum,0.5 µg/mL
same,MIC,[18]; β-lactamase positive,0.5 µg/mL
same,MIC,[20],0.5 µg/mL
CO/C(C)=C1/NC(=O)[C@H]([C@@H](C)O)NC(=O)c2csc(n2)-c2cc(O)c(-c3nc(C(N)=O)cs3)nc2-c2csc(n2)[C@@H]2CSC(=O)c3[nH]c4cccc5c4c3CO[C@@H](C(NC(=O)c3csc1n3)c1nc(cs1)C(=O)N2)[C@@H](O[C@H]1C[C@](C)(O)[C@H](N(C)C)[C@H](C)O1)C(=O)OC5 [glycothiohexide-α],antimicrobial activity against Gram-positive bacteria in vitro,Gram-positive bacteria [2],potent antimicrobial activity
CN(C)C1C(=O)C(C(N)=O)=C(O)C2(O)C(=O)C3=C(O)c4c(O)cccc4C(C)(O)C3CC12 (centres unmarked) [tetracycline],resistance/sensitivity of E. faecium strain A28152 to the antibiotic,[1],resistant
teicoplanin,resistance/sensitivity of E. faecium strain A28152 to the antibiotic,[1],resistant
C=C(NC(=O)c1csc(-c2nc3c(cc2O)-c2nc(cs2)C(=O)NC(C(C)O)C(=O)N/C(=C\C)c2nc(cs2)C(=O)NC2CC(O)C(=O)OCc4cccc5[nH]c(c(C)c45)C(=O)SCC(NC(=O)c4csc2n4)c2nc-3cs2)n1)C(N)=O (centres unmarked) [nosiheptide],antimicrobial activity against Gram-positive bacteria in vitro,Gram-positive bacteria [2],potent antimicrobial activity
CC1(C)S[C@@H]2[C@H](NC(=O)Cc3ccccc3)C(=O)N2[C@H]1C(=O)O [penicillin G],resistance/sensitivity of E. faecium strain A28152 to the antibiotic,[1],resistant
